Literature values, collected in patent US20240382500A1, “DOPAMINE RECEPTOR AGONISTS OR ANGIOTENSIN RECEPTOR BLOCKERS OR COMBINATIONS THEREOF FOR COVID-19 SEQUELAE” (priority 2023, published 2024).

Assays:
[1] = tested on: natural killer cells (NKCs)
[2] = 250 mg/day, characterized as a low dose
[3] = in vivo
[4] = dosages up to 15 mg/day, subjects with early-stage Parkinson's disease

Structure (SMILES): Oc1cc2c(cc1O)C(c1ccccc1)CNCC2 (centres unmarked) [SKF38393]
- NKC cytotoxicity [1]: augments
- tolerability in preclinical studies: well tolerated
- clinical benefit in schizophrenia [2]: failed to show a clinical benefit

Structure (SMILES): CCOc1nc2cccc(C(=O)O)c2n1Cc1ccc(-c2ccccc2-c2nn[nH]n2)cc1 [Candesartan]
- action of ANG II on ICAM-1 (ICAM-1): inhibit
- HMGB1 (HMGB1): lower
- microglial phagocytosis (microglia): strengthens

Structure (SMILES): Cc1cc(Oc2ncccc2C(F)(F)F)ccc1-c1c(C)c(=O)[nH]c(=O)n1C [PF-06649751]
- safety and tolerability in human subjects [3]: safe and well tolerated
- motor symptoms [4]: significant improvement
